Assay results from publication PMC7311426, “An amphipathic peptide with antibiotic activity against multidrug-resistant Gram-negative bacteria” (Nature Communications, 2020).
Residues, ends and D or L forms follow the SMILES beside them.

Tests used:
E. coli = E. coli MDR/ESBL; after 20 passages + 3 drug-free passages
7-day iv MTD toxicity = conditions: minipig
in vivo = conditions: both, mouse, plasma, inhaled or intranasal; for AUC(0-t) / Cmax: Plasma, mice
[1] = Intravenous pharmacokinetics; conditions: for Nonlin fit of XY (Prism), mouse i.v. bolus / level at 1.23 h / level at 2 h / level at 3 h / level at 4 h / level at 8 h / level at 0.08 h / level at 0.5 h / level at 1 h / level at 24 h: Cross species PK; for Nonlin fit of XY (Prism), mouse i.v. bolus: fitted curve; for level at 1.23 h / level at 2 h / level at 3 h / level at 4 h / level at 8 h / level at 0.08 h / level at 0.5 h / level at 1 h / level at 24 h: concentration (Fig 6 source data)
Procedure: The studies were performed at Fidelta Ltd, Croatia (mice), under review by the institutional ethics committee (CARE-Zg), and Covance Laboratories UK and Muenster Germany (cynomolgus monkey and minipig) in accordance with the requirements of the Animals (Scientific Procedures) Act 1989 and a maintained local ethical review. All studies were contracted by Adenium Biotech ApS. Mice were housed in polysulfone cages with an acclimatization period of 7 days prior to experiments with air temperature maintained at 22 °C with 55% humidity and light–dark cycles of 12 h light. Cynomolgus monkeys of age range 4–7 years were selected, tested for health, acclimatized for 2 weeks, and housed in single-animal climate controlled stainless-steel cages with a minimum of 8 air changes per hour with air temperature at 19–25 °C and relative humidity 40–70%, and light–dark cycles of 12 h light. Minipigs of age range 4–6 months were selected, tested for health, acclimatized for 2 weeks, and housed in single-animal pens with 15–20 air changes per hour with air temperature at 22–26 °C with light–dark cycles of 12 h light.
Mouse i.v. injection: A formulation of AA139 in Ringer’s acetate pH 6.0 (1 mg mL^−1) was administered to male CD1 mice (Charles River, Italy) at 10 mg kg^−1 as a 400 μL slow injection into the lateral tail vein. Blood samples were collected from the jugular vein at eight timepoints (n = 3 mice): 0.08, 0.25, 0.5, 1, 2, 4, 8, and 24 h. AA139 was quantified in plasma using solid phase extraction (SPE) followed by liquid chromatography with tandem mass spectrometric detection (LC–MS/MS). Pharmacokinetic analysis was performed using Phoenix WinNonlin 6.2. (Pharsight Corporation) software using individual animal data, non-compartmental sparse analysis, and the actual dose as determined from formulation analysis by UPLC.
Mouse, monkey, and minipig i.v. 2-h infusion: AA139 formulated in Ringer’s acetate was administered intravenously to CD1 mice, cynomolgus monkeys (Macaca fascicularis) and Göttingen A/S minipigs (Ellegaard Göttingen, Denmark) by continuous infusion over 2 h (minipig under anesthesia). Individual dose volumes were based on individual body weight. Blood samples were collected at 0.5, 1, 2, 3, 4, 8, 10, and 12 h after the start of the infusion (n = 6 mice, male and female combined; n = 2 monkeys, one male and one female; n = 2 minipigs, one male and one female). Bioanalytical analysis was performed by SPE followed by LC–MS/MS. The method was validated for an AA139 concentration range of 43.4–21,700 ng mL^−1. Pharmacokinetic parameters were calculated by standard non-compartmental analysis (NCA) using Phoenix WinNonlin version 6.2. The studies were conducted in compliance with Good Laboratory Practice (GLP) regulations.

[2] = 5 mg kg-1/day, Day 1, 5 mg kg-1/day, 2 hour daily inhalation
[3] = 5 mg kg-1/day, Day 7, 5 mg kg-1/day, inhalation
[4] = 40 mg kg-1/day, Day 1, 40 mg kg-1/day, inhalation
[5] = both, CD1, mouse, in vivo, iv, 10 mg kg-1
[6] = both, CD1, mouse, in vivo, iv, mouse 2h i.v. infusion, replicate 1
[7] = both, CD1, mouse, in vivo, iv, mouse 2h i.v. infusion, replicate 2
[8] = both, CD1, mouse, in vivo, iv, mouse 2h i.v. infusion, replicate 3
[9] = male, CD1, mouse, in vivo, iv, 10 mg kg-1
[10] = male, CD1, mouse, in vivo, iv, 10 mg/kg, mouse i.v. bolus, replicate 1
[11] = male, CD1, mouse, in vivo, iv, 10 mg/kg, mouse i.v. bolus, replicate 2
[12] = male, CD1, mouse, in vivo, iv, 10 mg/kg, mouse i.v. bolus, replicate 3

## CC(C)[C@@H]1NC(=O)[C@H](Cc2ccc(O)cc2)NC(=O)[C@H](Cc2c[nH]c3ccccc23)NC(=O)[C@@H](NC(=O)[C@H](Cc2ccccc2)NC(=O)CN)CSSC[C@@H](C(=O)N[C@@H](CC(N)=O)C(=O)O)NC(=O)[C@H](CCCNC(=N)N)NC(=O)[C@H](CCCNC(=N)N)NC(=O)[C@H](Cc2ccc(O)cc2)NC(=O)[C@@H]2CSSC[C@H](NC1=O)C(=O)N[C@@H](C)C(=O)N[C@@H](CCCNC(=N)N)C(=O)N[C@@H](CCCNC(=N)N)C(=O)N[C@@H](CC(N)=O)C(=O)NCC(=O)N[C@@H](C)C(=O)N[C@@H](CCCNC(=N)N)C(=O)N[C@@H](C(C)C)C(=O)N2 [AA139] (HELM PEPTIDE1{G.F.C.W.Y.V.C.A.R.R.N.G.A.R.V.C.Y.R.R.C.N}$PEPTIDE1,PEPTIDE1,3:R3-20:R3|PEPTIDE1,PEPTIDE1,7:R3-16:R3$$$V2.0)
E. coli
  Final MIC: 1 µg/mL
7-day iv MTD toxicity; in vivo, iv
  MTD at 168 h: 10 mg/kg
7-day iv MTD toxicity; in vivo, iv, 10 mg/kg
  AUC(0-inf): 36700 ng·h/mL
  Cmax: 8700 ng/mL
7-day iv MTD toxicity; 20, 25, or 30 mg kg^−1 per day by 2 h i.v. infusion for 7 days, dose-related severity
  Target organ toxicity, kidney: tubular nephropathy present
In vivo; 5 mg kg-1/day
  Tmax: 18 min
In vivo; [2]
  AUC(0-t): 262 ng·h/mL
  Cmax: 122 ng/mL
In vivo; [3]
  AUC(0-t): 85 ng·h/mL
  Cmax: 64 ng/mL
In vivo; 20 mg kg-1/day
  Tmax: 18 min
In vivo; 20 mg kg-1/day, Day 1, 20 mg kg-1/day, inhalation
  Cmax: 952 ng/mL
In vivo; 20 mg kg-1/day, Day 7, 20 mg kg-1/day, inhalation
  Cmax: 467 ng/mL
In vivo; 40 mg kg-1/day
  Tmax: 18 min
In vivo; [4]
  AUC(0-t): 4540 ng·h/mL
  Cmax: 2460 ng/mL
[1]; Time 19.1952 h
  Nonlin fit of XY (Prism), mouse i.v. bolus: 546.556
[1]; Time 20.1802 h
  Nonlin fit of XY (Prism), mouse i.v. bolus: 523.855
[1]; Time 23.952 h
  Nonlin fit of XY (Prism), mouse i.v. bolus: 452.817
[1]; [5]
  AUC(0-inf): 14000 ng·h/mL
  half-life: 174 min
[1]; [6]
  level at 1.23 h: 4540 ng/mL
  level at 2 h: 8160 ng/mL
  level at 3 h: 3530 ng/mL
  level at 4 h: 1350 ng/mL
  level at 8 h: 110 ng/mL
[1]; [7]
  level at 1.23 h: 4960 ng/mL
  level at 2 h: 8010 ng/mL
  level at 3 h: 3750 ng/mL
  level at 4 h: 1140 ng/mL
  level at 8 h: 216 ng/mL
[1]; [8]
  level at 1.23 h: 4090 ng/mL
  level at 2 h: 3870 ng/mL
  level at 3 h: 1420 ng/mL
  level at 4 h: 1490 ng/mL
  level at 8 h: 178 ng/mL
[1]; i.v., mice, cynomolgus monkeys and minipigs
  Clearance relative to rate of liver blood flow: ~ 20%
[1]; i.v., mice, cynomolgus monkeys and minipigs, bi-exponential elimination
  half-life: 120 to 240 min
[1]; [9]
  AUC(0-inf): 24900 ng·h/mL
  Vd: 0.91 L/kg
  half-life: 192 min
[1]; male, CD1, mouse, in vivo, iv, 10 mg/kg
  Cmax: 16200 ng/mL
[1]; [10]
  level at 0.08 h: 14900 ng/mL
  level at 0.5 h: 8770 ng/mL
  level at 1 h: 7140 ng/mL
  level at 2 h: 5140 ng/mL
  level at 4 h: 1600 ng/mL
  level at 8 h: 402 ng/mL
  level at 24 h: 48 ng/mL
[1]; [11]
  level at 0.08 h: 10800 ng/mL
  level at 0.5 h: 8380 ng/mL
  level at 1 h: 5150 ng/mL
  level at 2 h: 2960 ng/mL
  level at 4 h: 1470 ng/mL
  level at 8 h: 388 ng/mL
  level at 24 h: 32 ng/mL
[1]; [12]
  level at 0.08 h: 13200 ng/mL
  level at 0.5 h: 6290 ng/mL
  level at 1 h: 3780 ng/mL
  level at 2 h: 3850 ng/mL
  level at 4 h: 1500 ng/mL
  level at 8 h: 472 ng/mL
  level at 24 h: 31 ng/mL
[1]; mouse 2h i.v. infusion, time 10 h, replicate 1
  Cross species PK, concentration (Fig 6 source data): 88
[1]; mouse 2h i.v. infusion, time 10 h, replicate 2
  Cross species PK, concentration (Fig 6 source data): 124
[1]; mouse 2h i.v. infusion, time 10 h, replicate 3
  Cross species PK, concentration (Fig 6 source data): 134
[1]; mouse 2h i.v. infusion, time 12 h, replicate 1
  Cross species PK, concentration (Fig 6 source data): 72.4
[1]; mouse 2h i.v. infusion, time 12 h, replicate 2
  Cross species PK, concentration (Fig 6 source data): 93.8
[1]; mouse 2h i.v. infusion, time 12 h, replicate 3
  Cross species PK, concentration (Fig 6 source data): 62.7
